Data on 35 molecules can be found in patent publication US8889683B2, “Substituted quinoxalines as inhibitors of fatty acid binding protein” (Merck Sharp & Dohme Corp., priority 2010, dated 2014).

Sequence of FABP4 (P15090 whole entry): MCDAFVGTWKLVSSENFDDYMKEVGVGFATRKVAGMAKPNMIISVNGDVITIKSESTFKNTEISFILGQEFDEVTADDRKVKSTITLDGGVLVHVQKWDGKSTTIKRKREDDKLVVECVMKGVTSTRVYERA

The target in one experiment is FABP4 (Homo sapiens, UniProt P15090). The experiment can be described thus: TdF-based ligand binding affinity (FABP inhibitory activity assay). The conditions noted are these: TdF-based ligand binding affinity constant. The source says:
Theoretical basis for TdF-based ligand binding affinity constant
The derivation of TdF-based ligand binding affinity constant (Kd) followed closely those previously formulated by Brandts and Lin, Biochemistry 29 (1990) 6927-6940. In brief, the binding constant of the ligand at the Tm is expressed as below: […]
where T0 is the midpoint of unfolding for unliganded protein and Tm is the midpoint of unfolding in presence of ligand. [LTm] is free ligand at Tm. The ΔHu and ΔCpu are the enthalpy of unfolding and heat capacity change of unfolding for the protein respectively. The ΔCPu is proportional to the size of protein and is an approximate quantity in the above equation (empirically, ΔCpu=(MW of protein/115)*14 cal/mol*K). Following algorithm derived by Mayhood et al, (Analytical Biochemistry 345 (2005) 187-197), the T0 and ΔHu can be determined separately from nonlinear regression fitting the temperature dependent protein alone curve to the following equation: […]
The nonlinear regression fitting in general readily reaches convergence by properly constraining the initial values for the fitting parameters (e.g. the initial “guess” for the ΔHu was constrained to 120 kcal/mol; initial Yn and mr, were set to 1 and zero to best represent the melting curve along the low temperature region; negative slope of −0.5 was initially chosen for mu; initial Tm was also constrained to 50° C.).
(see Brandts et al and Mayhood et al, shown above) where ΔHL (T) is the van't Hoff enthalpy of ligand binding at temperature T and ΔCpL is the heat capacity upon ligand binding. For simplicity, the ΔCpL and ΔHL (T) were set to zero and −7 kcal/mol respectively. (The ΔCpL accounts for minimal portion of total protein-ligand binding energetics and is therefore set to zero (For example, see Hossein Naghibi et al, Proc. Natl. Acad. Sci. 92, 5597-5599 (1995), where ΔCpL was estimated to ˜2% of ΔHL at 25° C. obtained from calorimetric study of binding RNase A and 2′-CMP)).
The molecule `O=C(c1nc2cccnc2nc1O)N1CCCC1Cc1cccc(Cl)c1` (racemic) [Compound 1-33, (+/−)-[2-(3-Chlorobenzyl)pyrrolidin-1-yl](3-hydroxypyrido[3,2-b]pyrazin-2-yl)methanone] came in with a Kd of 600 nM.

In the case of `O=C(c1nc2ccc(Cl)cc2nc1O)N1CCCC1Cc1cccc(Cl)c1` (racemic) [Compound 1-10, (+/−)-(6-Chloro-3-hydroxyquinoxalin-2-yl)[2-(3-chlorobenzyl)pyrrolidin-1-yl]methanone], binding was characterised by a dissociation constant (Kd) of 250 nM. Still for that read-out and setting: then `Nc1nc2ccccc2nc1C(=O)N1CCCC1Cc1cccc(Cl)c1` (stereo not drawn) [Compound 5-2, (3-aminoquinoxalin-2-yl)[2-(3-chlorobenzyl)pyrrolidin-1-yl]methanone], with 10000 nM; and `O=C(c1nc2cc(S(=O)(=O)C(F)(F)F)ccc2nc1O)N1CCCC1Cc1cccc(Cl)c1` (racemic) [Compound 1-24, (+/−)-[2-(3-Chlorobenzyl)pyrrolidin-1-yl][3-hydroxy-7-(trifluoromethylsulfonyl)quinoxalin-2-yl]methanone], with 300 nM; and `O=C(c1nc2cc(F)c(F)cc2nc1O)N1CCCC1Cc1cccc(Cl)c1` (racemic) [Compound 1-2, (+/−)-[2-(3-chlorobenzyl)pyrrolidin-1-yl](6,7-difluoro-3-hydroxyquinoxalin-2-yl)methanone], with 80 nM.

`O=C(c1nc2ccccc2nc1O)N1CCCC(Cc2cccc(F)c2)C1` (racemic) [Compound 1-86, (+/−)-[3-(3-Fluorobenzyl)piperidin-1-yl](3-hydroxyquinoxalin-2-yl)methanone] yielded an equilibrium dissociation constant (Kd) of 8600 nM. In turn, `O=C(c1nc2ccc(C(F)(F)F)cc2nc1O)N1CCCC1Cc1cccc(F)c1` (stereo not drawn) [Compound 1-163] yielded a Kd of 2 nM. Same read-out and setting: then `O=C(c1nc2ccccc2nc1O)N1CCC[C@H]1Cc1cc(Cl)cc(Cl)c1` [Compound 8-6, (S)-(2-(3,5-dichlorobenzyl)pyrrolidin-1-yl)(3-hydroxyquinoxalin-2-yl)methanone], with 250 nM; and `O=C(c1nc2ccccc2nc1O)N1CCCC(Cc2ccccc2)C1` (racemic) [Compound 1-83, (+/−)-(3-Benzylpiperidin-1-yl)(3-hydroxyquinoxalin-2-yl)methanone], with 16200 nM; and `O=C(c1nc2ccc(C(F)(F)F)cc2nc1O)N1CCCC1Cc1ccc(Cl)c(Cl)c1` (stereo not drawn) [Compound 1-164], with 548 nM. Same read-out and setting: then `O=C(c1nc2ccccc2nc1O)N1CCCC1Cc1ccccc1` (stereo not drawn) [Compound 1-116], with 4600 nM.

Regarding `O=C(c1nc2ccccc2nc1O)N1CCC[C@H]1Cc1cccc(Cl)c1` [Compound 8-8, (S)-(2-(3-chlorobenzyl)pyrrolidin-1-yl)(3-hydroxyquinoxalin-2-yl)methanone], the Kd turned out to be 300 nM. Same read-out and setting: then `O=C(c1nc2cc(I)ccc2nc1O)N1CCCC1Cc1cccc(Cl)c1` (racemic) [Compound 1-18, (+/−)-[2-(3-Chlorobenzyl)pyrrolidin-1-yl](3-hydroxy-7-iodoquinoxalin-2-yl)methanone], with 630 nM; and `COc1ccc2nc(O)c(C(=O)N3CCCC3Cc3cccc(Cl)c3)nc2c1` (racemic) [Compound 1-27, (+/−)-[2-(3-Chlorobenzyl)pyrrolidin-1-yl](3-hydroxy-7-methoxyquinoxalin-2-yl)methanone], with 4940 nM. In turn, `O=C(c1nc2cccc(Cl)c2nc1O)N1CCCC1Cc1cccc(Cl)c1` (racemic) [Compound 1-11, (+/−)-(5-Chloro-3-hydroxyquinoxalin-2-yl)[2-(3-chlorobenzyl)pyrrolidin-1-yl]methanone] gave a Kd of 3 nM.

Regarding `CCCN(CC1CC1)C(=O)c1nc2ccccc2nc1O` [Compound 1-137], binding was characterised by a dissociation constant (Kd) of 31000 nM. On the same count and under the same terms, then `O=C(c1nc2cc(Cl)c(Cl)cc2nc1O)N1CCCC1CC1CCCCC1` (stereo not drawn) [Compound 1-165], with 244 nM; and `O=C(c1nc2cc(F)c(F)cc2nc1O)N1CCC[C@H]1Cc1cc(Cl)cc(Cl)c1` [Compound 8-12], with 1.3 nM.

Take `O=C(c1nc2ccccc2nc1O)N1CCCC1COc1ccc(F)c(Cl)c1` (racemic) [Compound 1-64, (+/−)-{2-[(3-Chloro-4-fluorophenoxy)methyl]pyrrolidin-1-yl}(3-hydroxyquinoxalin-2-yl)methanone]: the dissociation constant Kd turned out to be 15100 nM.

With `O=C(c1nc2cc(OC(F)(F)F)ccc2nc1O)N1CCCC1Cc1cccc(Cl)c1` (racemic) [Compound 1-20, (+/−)-[2-(3-Chlorobenzyl)pyrrolidin-1-yl][3-hydroxy-7-(trifluoromethoxy)quinoxalin-2-yl]methanone], the affinity, expressed as Kd, was 950 nM. Same read-out and setting: then `O=C(c1nc2cc(Cl)ccc2nc1O)N1CCCC1Cc1cccc(Cl)c1` (racemic) [Compound 1-9, (+/−)-(7-Chloro-3-hydroxyquinoxalin-2-yl)[2-(3-chlorobenzyl)pyrrolidin-1-yl]methanone], with 410 nM. Same read-out and setting: then `O=C(c1nc2ccccc2nc1O)N1CCCC1Cc1cccc(Cl)c1` (stereo not drawn) [Compound 1-99], with 950 nM; and `O=C(c1nc2ccccc2nc1O)N1CCCC1COc1ccc(F)cc1` (racemic) [Compound 1-55, (+/−)-{2-[(4-fluorophenoxy)methyl]pyrrolidin-1-yl}(3-hydroxyquinoxalin-2-yl)methanone], with 23000 nM.

Take `O=C(c1nc2ccccc2nc1O)N1CCC[C@@H]1Cc1cccc(Cl)c1` [Compound 8-9, (R)-(2-(3-chlorobenzyl)pyrrolidin-1-yl)(3-hydroxyquinoxalin-2-yl)methanone]: the Kd turned out to be 5000 nM. On the same count and under the same terms, then `O=C(c1nc2cccc(Cl)c2nc1O)N1CCCC1Cc1ccc(Cl)c(Cl)c1` (stereo not drawn) [Compound 1-162], with 4 nM; and `Cc1ccc(CC2CCCN2C(=O)c2nc3ccccc3nc2O)cc1` (stereo not drawn) [Compound 1-117], with 9800 nM.

In turn, `O=C(c1nc2ccccc2nc1O)N1CCCC1Cc1cccc(F)c1` (racemic) [Compound 1-51, (+/−)-[2-(3-Fluorobenzyl)pyrrolidin-1-yl](3-hydroxyquinoxalin-2-yl)methanone] yielded a dissociation constant (Kd) of 1800 nM.

`Cc1ccc(C(C)C)cc1N(C)C(=O)c1nc2ccccc2nc1O` [Compound 1-124] registered a Kd of 11300 nM. On the same count and under the same terms, then `O=C(c1nc2ccccc2nc1O)N1CCCC1Cc1ccccc1F` (stereo not drawn) [Compound 1-153], with 2900 nM. Still for that read-out and setting: then `Cc1ccc(CC2CCCN2C(=O)c2nc3ccccc3nc2O)cc1C` (racemic) [Compound 1-42, (+/−)-[2-(3,4-Dimethylbenzyl)pyrrolidin-1-yl](3-hydroxyquinoxalin-2-yl)methanone], with 1340 nM; and `O=C(c1nc2cccc(Cl)c2nc1O)N1CCCC1Cc1cccc(F)c1` (stereo not drawn) [Compound 1-161], with 22 nM. Still for that read-out and setting: then `O=C(c1nc2ccc(SC(F)(F)F)cc2nc1O)N1CCCC1Cc1cccc(Cl)c1` (racemic) [Compound 1-23, (+/−)-[2-(3-Chlorobenzyl)pyrrolidin-1-yl][3-hydroxy-6-(trifluoromethylthio]quinoxalin-2-yl)methanone], with 24 nM; and `CN(Cc1cccc(Cl)c1)C(=O)c1nc2ccccc2nc1O` [Compound 1-143], with 23100 nM.

As for `Cc1cccc(CC2CCCCCN2C(=O)c2nc3ccccc3nc2O)c1` (racemic) [Compound 1-91, (+/−)-(3-Hydroxyquinoxalin-2-yl)[2-(3-methylbenzyl)azepan-1-yl]methanone], the Kd is 1840 nM. On the same count and under the same terms, then `O=C(c1nc2c(F)cc(F)cc2nc1O)N1CCC[C@H]1Cc1cc(Cl)cc(Cl)c1` [9-18, (S)-(2-(3,5-dichlorobenzyl)pyrrolidin-1-yl)(6,8-difluoro-3-hydroxyquinoxalin-2-yl)methanone], with 50 nM.

In another experiment the target is FABP5 (Homo sapiens, UniProt Q01469). The experiment can be described thus: FABP5 TdCD binding affinity.
Sequence of FABP5 (Q01469 whole entry): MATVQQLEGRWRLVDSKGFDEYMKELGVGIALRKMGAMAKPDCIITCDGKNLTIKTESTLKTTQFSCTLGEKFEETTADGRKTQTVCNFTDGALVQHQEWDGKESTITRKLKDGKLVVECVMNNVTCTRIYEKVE
Settings: not given
Take `O=C(c1nc2ccccc2nc1O)N1CCC[C@H]1Cc1cccc(Cl)c1` [Compound 8-8, (S)-(2-(3-chlorobenzyl)pyrrolidin-1-yl)(3-hydroxyquinoxalin-2-yl)methanone]: the Kd was determined as 500 nM.

What is called Kd is the equilibrium constant for the complex coming apart. Lower therefore signals a tighter complex.
